According to PMC9848300, “Discovery of novel enasidenib analogues targeting inhibition of mutant isocitrate dehydrogenase 2 as antileukaemic agents” (Journal of Enzyme Inhibition and Medicinal Chemistry, 2023):
Where two headings read alike, the source gives them in different places.

Columns and labels:
[1] = system: HCT-15; experiment: NCI 60 antitumor screening (single dose / five doses); format: cell-based; conditions: Homo sapiens
[2] = system: RPMI-8226; experiment: as above; format: cell-based; conditions: Homo sapiens
[3] = system: K-562; experiment: as above; format: cell-based; conditions: Homo sapiens
[4] = system: SR; experiment: as above; format: cell-based; conditions: Homo sapiens, read-out: Growth inhibition percentage (GI %)
[5] = system: HOP-92; experiment: as above; format: cell-based; conditions: Homo sapiens
[6] = system: SN 12C; experiment: as above; format: cell-based; conditions: Homo sapiens, SN12C, read-out: Growth inhibition percentage (GI %)
[7] = system: BT-549; experiment: as above; format: cell-based; conditions: Homo sapiens
[8] = system: T-47D; experiment: as above; format: cell-based; conditions: Homo sapiens, T47D, read-out: Growth inhibition percentage (GI %)
[9] = system: LOX IMVI; experiment: as above; format: cell-based; conditions: Homo sapiens, read-out: Growth inhibition percentage (GI %)
[10] = system: HCT-116; experiment: as above; format: cell-based; conditions: Homo sapiens
[11] = system: SNB-75; experiment: as above; format: cell-based; conditions: Homo sapiens
[12] = system: ACHN; experiment: as above; format: cell-based; conditions: Homo sapiens, read-out: Growth inhibition percentage (GI %)
[13] = system: 786-0; experiment: as above; format: cell-based; conditions: Homo sapiens
[14] = system: NCI/ADR-RES; experiment: as above; format: cell-based; conditions: Homo sapiens, read-out: Growth inhibition percentage (GI %)
[15] = system: MDA-MB-231/ATCC; experiment: as above; format: cell-based; conditions: Homo sapiens
[16] = system: UACC-62; experiment: as above; format: cell-based; conditions: Homo sapiens
[17] = system: UO-31; experiment: as above; format: cell-based; conditions: Homo sapiens
[18] = system: MALME-3M; experiment: as above; format: cell-based; conditions: Homo sapiens, read-out: Growth inhibition percentage (GI %)
[19] = system: CCRF-CEM; experiment: as above; format: cell-based; conditions: Homo sapiens, read-out: Growth inhibition percentage (GI %)
[20] = system: MOLT-4; experiment: as above; format: cell-based; conditions: Homo sapiens
[21] = system: 60 human subpanel cancer cell lines; experiment: NCI 60 antitumor screening, mean over the panel (single dose); format: cell-based; conditions: mean over 60 cancer cell lines, single dose 10 μM
Method in brief: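 Percent growth inhibition, calculated as 100 minus percent growth (G%) of treated cells, following a single 10 μM exposure in the NCI 60 human cancer cell screen; triplicate runs.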

[22] = system: HL-60(TB); experiment: NCI 60 antitumor screening (single dose / five doses); format: cell-based; conditions: Homo sapiens
[23] = system: HT29; experiment: as above; format: cell-based, human; conditions: Homo sapiens
[24] = system: UACC-257; experiment: as above; format: cell-based; conditions: Homo sapiens
[25] = system: SF-539; experiment: as above; format: cell-based; conditions: Homo sapiens
[26] = system: MDA-MB-435; experiment: as above; format: cell-based; conditions: Homo sapiens
[27] = system: HS 578T; experiment: NCI 60 antitumor screening (single dose); format: cell-based; conditions: Homo sapiens, read-out: Growth inhibition percentage (GI %)
Method in brief: (§1)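 NCI-60 protocol: single 10 μM dose against each cell line, run in triplicate. Percent growth (G%) of treated cells measured and growth inhibition reported as GI% = 100 − G%; panel mean also given.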

[28] = system: TK-10; experiment: NCI 60 antitumor screening (single dose); format: cell-based; conditions: Homo sapiens
Method in brief: as §1

[29] = system: M14; experiment: NCI 60 antitumor screening (single dose); format: cell-based; conditions: Homo sapiens
Method in brief: as §1

With `Clc1cccc(/C=N/Nc2nc(N/N=C/c3cccc(Cl)c3Cl)nc(N3CCOCC3)n2)c1Cl` [compound 6h, 2,4-Bis[(E)-2-[(2,3-Dichlorophenyl)methylidene]hydrazin-1-yl]-6-(morpholin-4-yl)-1,3,5-triazine] the inhibition at 10 µM ([1]; HCT-15 (colon cancer), single dose 10 μM, read-out: Growth inhibition percentage (GI %)) was 15.2%, the inhibition at 10 µM ([2]; RPMI-8226 (leukaemia), single dose 10 μM, read-out: Growth inhibition percentage (GI %)) was 12.1% and the inhibition at 10 µM ([3]; K562, K-562 (leukaemia), single dose 10 μM, read-out: Growth inhibition percentage (GI %)) was 38.6%. It also gave an inhibition at 10 µM ([4]; SR (leukaemia), single dose 10 μM) of 51.9%, an inhibition at 10 µM ([5]; HOP-92 (non-small cell lung cancer), single dose 10 μM, read-out: Growth inhibition percentage (GI %)) of -5.67% and an inhibition at 10 µM ([6]; SN 12C (renal cancer), single dose 10 μM) of 20.2%. For the same compound, the inhibition at 10 µM ([7]; BT-549 (breast cancer), single dose 10 μM, read-out: Growth inhibition percentage (GI %)) was 0.16%, the inhibition at 10 µM ([8]; T-47D (breast cancer), single dose 10 μM) was 44.7% and the inhibition at 10 µM ([9]; LOX IMVI (melanoma), single dose 10 μM) was 31.6%. It also gave an inhibition at 10 µM ([10]; HCT-116 (colon cancer), single dose 10 μM, read-out: Growth inhibition percentage (GI %)) of 19.3%, an inhibition at 10 µM ([11]; SNB-75 (CNS cancer), single dose 10 μM, read-out: Growth inhibition percentage (GI %)) of -19.6% and an inhibition at 10 µM ([12]; ACHN (renal cancer), single dose 10 μM) of -7.98%. It also gave an inhibition at 10 µM ([13]; 786-0, 786-0 (renal cancer), single dose 10 μM, read-out: Growth inhibition percentage (GI %)) of 1.86%, an inhibition at 10 µM ([14]; NCI/ADR-RES (ovarian cancer), single dose 10 μM) of 34.2% and an inhibition at 10 µM ([15]; MDA-MB-231/ATCC (breast cancer), single dose 10 μM, read-out: Growth inhibition percentage (GI %)) of 13.8%. For the same compound, the inhibition at 10 µM ([16]; UACC-62 (melanoma), single dose 10 μM, read-out: Growth inhibition percentage (GI %)) was 11.3%, the inhibition at 10 µM ([17]; UO-31 (renal cancer), single dose 10 μM, read-out: Growth inhibition percentage (GI %)) was 16.1% and the inhibition at 10 µM ([18]; MALME-3M (melanoma), single dose 10 μM) was 2.72%. The inhibition at 10 µM ([19]; CCRF-CEM (leukaemia), single dose 10 μM) was 16.5%, the inhibition at 10 µM ([20]; MOLT-4 (leukaemia), single dose 10 μM, read-out: Growth inhibition percentage (GI %)) was 16.1% and the “Mean GI %” value [21] was 9.97%. It also gave an inhibition at 10 µM ([22]; HL-60(TB) (leukaemia), single dose 10 μM, read-out: Growth inhibition percentage (GI %)) of -3.95%, an inhibition at 10 µM ([23]; HT-29, HT29 (colon cancer), single dose 10 μM, read-out: Growth inhibition percentage (GI %)) of 12.9% and an inhibition at 10 µM ([24]; UACC-257 (melanoma), single dose 10 μM, read-out: Growth inhibition percentage (GI %)) of -9.57%. It also gave an inhibition at 10 µM ([25]; SF-539 (CNS cancer), single dose 10 μM, read-out: Growth inhibition percentage (GI %)) of 44.2%, an inhibition at 10 µM ([26]; MDA-MB-435 (melanoma), single dose 10 μM, read-out: Growth inhibition percentage (GI %)) of -6.86% and an inhibition at 10 µM ([27]; HS 578T (breast cancer), single dose 10 μM) of -8.95%. The inhibition at 10 µM ([28]; TK-10 (renal cancer), single dose 10 μM, read-out: Growth inhibition percentage (GI %)) was -29.2% and the inhibition at 10 µM ([29]; M14 (melanoma), single dose 10 μM, read-out: Growth inhibition percentage (GI %)) was -4.08%.
For `O=[N+]([O-])c1cc(/C=N/Nc2nc(N/N=C/c3ccc(Cl)c([N+](=O)[O-])c3)nc(N3CCOCC3)n2)ccc1Cl` [compound 6i, 2,4-Bis[(E)-2-[(4-Chloro-3-nitrophenyl)methylidene]hydrazin-1-yl]-6-(morpholin-4-yl)-1,3,5-triazine], the inhibition at 10 µM ([1]; HCT-15, read-out: Growth inhibition percentage (GI %)) was 8.38%, the inhibition at 10 µM ([2]; RPMI-8226, read-out: Growth inhibition percentage (GI %)) was 42.8% and the inhibition at 10 µM ([3]; K562, read-out: Growth inhibition percentage (GI %)) was 31.4%. For the same compound, the inhibition at 10 µM ([4]; SR) was 18.5%, the inhibition at 10 µM ([5]; HOP-92, read-out: Growth inhibition percentage (GI %)) was -20.3% and the inhibition at 10 µM [6] was 9.02%. The inhibition at 10 µM ([7]; BT-549, read-out: Growth inhibition percentage (GI %)) was -0.85%, the inhibition at 10 µM [8] was 0.85% and the inhibition at 10 µM ([9]; LOX IMVI) was 9.76%. The inhibition at 10 µM ([10]; HCT-116, read-out: Growth inhibition percentage (GI %)) was 7.64%, the inhibition at 10 µM ([11]; SNB-75, read-out: Growth inhibition percentage (GI %)) was -7.64% and the inhibition at 10 µM ([12]; ACHN) was -2.76%. The inhibition at 10 µM ([13]; 786-0, read-out: Growth inhibition percentage (GI %)) was -8.76%, the inhibition at 10 µM ([14]; NCI/ADR-RES) was -0.3% and the inhibition at 10 µM ([15]; MDA-MB-231, read-out: Growth inhibition percentage (GI %)) was 3.16%. It also gave an inhibition at 10 µM ([16]; UACC-62, read-out: Growth inhibition percentage (GI %)) of 9.59%, an inhibition at 10 µM ([17]; UO-31, read-out: Growth inhibition percentage (GI %)) of 22.3% and an inhibition at 10 µM ([18]; Malme-3M) of -29.9%. For the same compound, the inhibition at 10 µM ([19]; CCRF-CEM) was 12.2%, the inhibition at 10 µM ([20]; MOLT-4, read-out: Growth inhibition percentage (GI %)) was 13.3% and the “Mean GI %” value [21] was 0.67%. The inhibition at 10 µM ([22]; HL-60, read-out: Growth inhibition percentage (GI %)) was 13.7%, the inhibition at 10 µM ([23]; HT-29, read-out: Growth inhibition percentage (GI %)) was -2.29% and the inhibition at 10 µM ([24]; UACC-257, read-out: Growth inhibition percentage (GI %)) was -2.78%. The inhibition at 10 µM ([25]; SF-539, read-out: Growth inhibition percentage (GI %)) was 6.38%, the inhibition at 10 µM ([26]; MDA-MB-435, read-out: Growth inhibition percentage (GI %)) was -7.52% and the inhibition at 10 µM ([27]; Hs-578T) was -5.27%. The inhibition at 10 µM ([28]; TK-10, read-out: Growth inhibition percentage (GI %)) was -24.4% and the inhibition at 10 µM ([29]; M14, read-out: Growth inhibition percentage (GI %)) was -11.5%.
